Measured values as given in patent US9120812B2, “Pyrimidooxazocine derivatives as mTOR-inhibitors” (SANOFI, priority 2012, dated 2015).

Key:
U87MG tumour cells = assay: Test of in vitro proliferation of U87MG tumour cells; assay type: cell-based; conditions: Homo sapiens, U-87 MG, 72 h, U87MG cells, 72 hours; read-out: U87 Cell Proliferation IC50
Procedure: Model 4: Test of in vitro Proliferation of U87MG Tumour Cells.
The cell growth is determined with the reagent CellTiter 96 AQueous One Solution Cell Proliferation Assay from Promega (Cat. No. G3581).

[1] = target: mTOR (human recombinant aa mTOR 1360-2549) (Homo sapiens (Human), UniProt P42345); assay: mTOR enzymatic test by TR-FRET (phosphorylation of GFP-4EBP1); assay type: biochemical
Summary of the method: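 TR-FRET detection of GFP-4EBP1 phosphorylation by a terbium-labelled anti-phospho-Thr46 antibody. Kinase reaction ran 30 min at room temperature, was quenched with EDTA (10 mM final) plus Tb-antibody (2 nM final) and left 60 min. Emission at 520 and 490 nm after 340 nm excitation, reported as the 520/490 ratio.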

Akt-pS473 in U87MG cells = conditions: Homo sapiens, U-87 MG, read-out: U87 Akt-pS473 % Inhibition or IC50, nM (IC50), U87MG cells
PI3Kα (p110α/p85α) = PI3Kα (p110α/p85α) (Homo sapiens (Human), UniProt P42336); assay: PI3Kα enzymatic test by measuring the consumption of ATP; assay type: biochemical
Summary of the method: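 p110α/p85α (1.7 μg/ml) with 50 μM PIP2 and 2 μM ATP in pH 7.5 Tris buffer with EGTA, MgCl2, Chaps, DTT; reaction 90 min. Remaining ATP measured by luciferin/luciferase luminescence; IC50 from threefold serial dilutions spanning at least 10 000-fold.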

PI3Kα (p110α/p85α), sequence (P42336 whole entry): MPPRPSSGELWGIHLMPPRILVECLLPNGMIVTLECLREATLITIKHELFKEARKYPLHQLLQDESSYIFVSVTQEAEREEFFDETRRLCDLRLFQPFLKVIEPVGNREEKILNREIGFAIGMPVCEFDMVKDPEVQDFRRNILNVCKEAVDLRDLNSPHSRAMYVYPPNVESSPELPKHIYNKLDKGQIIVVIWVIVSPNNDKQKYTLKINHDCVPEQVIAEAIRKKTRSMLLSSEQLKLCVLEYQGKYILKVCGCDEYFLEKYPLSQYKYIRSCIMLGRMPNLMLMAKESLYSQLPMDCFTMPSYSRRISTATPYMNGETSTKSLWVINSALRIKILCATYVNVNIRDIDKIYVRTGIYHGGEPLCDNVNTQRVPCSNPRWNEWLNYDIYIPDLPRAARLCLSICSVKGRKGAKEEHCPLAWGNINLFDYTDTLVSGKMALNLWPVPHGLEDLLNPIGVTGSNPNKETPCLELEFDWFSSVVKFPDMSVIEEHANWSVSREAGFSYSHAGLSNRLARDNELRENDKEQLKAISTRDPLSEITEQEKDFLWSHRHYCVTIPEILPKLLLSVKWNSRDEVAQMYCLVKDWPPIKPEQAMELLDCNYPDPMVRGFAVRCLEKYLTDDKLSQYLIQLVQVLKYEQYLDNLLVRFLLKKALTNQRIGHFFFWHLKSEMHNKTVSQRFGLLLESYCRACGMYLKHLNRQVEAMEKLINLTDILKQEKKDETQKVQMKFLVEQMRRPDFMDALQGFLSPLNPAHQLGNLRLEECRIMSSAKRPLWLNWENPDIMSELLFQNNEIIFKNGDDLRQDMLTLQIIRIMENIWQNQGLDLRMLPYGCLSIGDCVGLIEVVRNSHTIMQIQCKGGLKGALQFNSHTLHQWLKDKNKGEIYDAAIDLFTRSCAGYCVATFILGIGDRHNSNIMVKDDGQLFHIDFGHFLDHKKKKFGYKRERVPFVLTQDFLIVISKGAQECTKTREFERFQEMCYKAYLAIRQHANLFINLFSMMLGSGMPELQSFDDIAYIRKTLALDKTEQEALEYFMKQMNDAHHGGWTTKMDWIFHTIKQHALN
PI3Kα (p110α/p85α), sequence (P27986 whole entry partner): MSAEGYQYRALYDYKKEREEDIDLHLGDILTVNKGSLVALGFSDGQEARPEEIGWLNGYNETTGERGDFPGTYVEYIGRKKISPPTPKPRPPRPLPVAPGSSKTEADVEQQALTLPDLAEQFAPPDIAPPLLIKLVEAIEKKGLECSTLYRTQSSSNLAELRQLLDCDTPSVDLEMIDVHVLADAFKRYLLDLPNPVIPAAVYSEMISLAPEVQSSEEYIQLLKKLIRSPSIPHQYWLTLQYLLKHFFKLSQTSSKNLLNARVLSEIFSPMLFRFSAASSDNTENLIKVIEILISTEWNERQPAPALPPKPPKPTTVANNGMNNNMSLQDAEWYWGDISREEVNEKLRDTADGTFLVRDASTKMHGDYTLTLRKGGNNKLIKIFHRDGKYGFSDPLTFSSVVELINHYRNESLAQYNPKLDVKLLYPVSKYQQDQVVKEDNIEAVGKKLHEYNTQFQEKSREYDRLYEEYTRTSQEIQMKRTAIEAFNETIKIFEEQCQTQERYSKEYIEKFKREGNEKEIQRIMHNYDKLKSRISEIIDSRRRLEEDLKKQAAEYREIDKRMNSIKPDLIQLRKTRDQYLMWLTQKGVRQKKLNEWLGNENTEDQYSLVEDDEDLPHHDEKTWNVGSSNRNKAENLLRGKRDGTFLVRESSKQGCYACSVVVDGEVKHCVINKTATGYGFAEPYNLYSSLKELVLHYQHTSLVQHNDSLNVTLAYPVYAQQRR
mTOR (human recombinant aa mTOR 1360-2549), sequence (P42345 1360-2549): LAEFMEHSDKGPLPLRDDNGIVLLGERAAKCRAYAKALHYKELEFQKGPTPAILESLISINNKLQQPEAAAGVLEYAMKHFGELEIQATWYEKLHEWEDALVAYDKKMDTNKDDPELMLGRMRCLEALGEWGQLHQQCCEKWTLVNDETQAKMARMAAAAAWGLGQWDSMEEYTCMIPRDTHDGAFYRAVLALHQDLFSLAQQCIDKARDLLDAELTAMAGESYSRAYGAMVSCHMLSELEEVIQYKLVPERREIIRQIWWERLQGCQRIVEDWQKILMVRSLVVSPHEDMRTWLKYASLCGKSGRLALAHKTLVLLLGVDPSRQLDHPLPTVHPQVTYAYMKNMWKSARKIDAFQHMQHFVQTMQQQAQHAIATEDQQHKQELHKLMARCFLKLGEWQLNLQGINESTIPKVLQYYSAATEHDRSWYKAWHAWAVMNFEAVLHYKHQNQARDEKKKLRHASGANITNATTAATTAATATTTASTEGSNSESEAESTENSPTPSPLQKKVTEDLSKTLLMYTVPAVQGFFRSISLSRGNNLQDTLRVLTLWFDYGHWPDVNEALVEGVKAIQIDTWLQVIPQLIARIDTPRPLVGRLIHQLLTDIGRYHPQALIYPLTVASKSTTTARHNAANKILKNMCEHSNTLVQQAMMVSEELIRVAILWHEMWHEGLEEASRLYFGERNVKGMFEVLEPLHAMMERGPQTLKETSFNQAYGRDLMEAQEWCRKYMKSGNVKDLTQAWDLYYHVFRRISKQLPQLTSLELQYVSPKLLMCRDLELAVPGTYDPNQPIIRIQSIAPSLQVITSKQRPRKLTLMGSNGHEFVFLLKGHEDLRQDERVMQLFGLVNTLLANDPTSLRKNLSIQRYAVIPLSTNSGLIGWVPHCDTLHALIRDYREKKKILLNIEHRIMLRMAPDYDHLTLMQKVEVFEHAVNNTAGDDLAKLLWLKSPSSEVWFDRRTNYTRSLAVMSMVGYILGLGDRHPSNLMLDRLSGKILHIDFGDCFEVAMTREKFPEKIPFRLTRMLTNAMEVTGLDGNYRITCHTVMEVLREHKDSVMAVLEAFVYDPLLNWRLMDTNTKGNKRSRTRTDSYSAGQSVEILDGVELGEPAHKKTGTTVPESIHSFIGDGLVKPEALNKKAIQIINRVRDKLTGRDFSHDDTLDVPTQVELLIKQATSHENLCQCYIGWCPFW

| SMILES | IC50 (U87MG tumour cells) | IC50 [1] | IC50 (Akt-pS473 in U87MG cells) | PI3Ka IC50 (PI3Kα (p110α/p85α)) |
| --- | --- | --- | --- | --- |
| CCN1CC(C)(C)Oc2nc(N3CC4CCC(C3)O4)nc(-c3ccc(Nc4nnc(-c5ccc(OC)nc5)[nH]4)c(F)c3)c2C1=O [Example 183, 6-Ethyl-4-{3-fluoro-4-[5-(6-methoxypyridin-3-yl)-4H-[1,2,4]triazol-3-ylamino]phenyl}-8,8-dimethyl-2-(8-oxa-3-azabicyclo[3.2.1]oct-3-yl)-7,8-dihydro-6H-9-oxa-1,3,6-triazabenzocyclohepten-5-one] | 752 nM | 128 nM | 165 nM | >10000 nM |
| CNC(=O)Nc1ccc(-c2nc(N3CC4CCC(C3)O4)nc3c2C(=O)N(C)CC(C)(C)O3)cc1 [Example 38, 1-Methyl-3-{4-[6,8,8-trimethyl-2-(8-oxa-3-azabicyclo[3.2.1]oct-3-yl)-5-oxo-5,6,7,8-tetrahydro-9-oxa-1,3,6-triazabenzocyclohepten-4-yl]phenyl}urea] | 218 nM | 22 nM | 23 nM | 3450 nM |
| CCN1CC(C)(C)Oc2nc(N3CCOC[C@@H]3C)nc(-c3ccc(NC(=O)Nc4nnc(C)o4)c(F)c3)c2C1=O [Example 170, 1-{4-[6-Ethyl-8,8-dimethyl-2-((S)-3-methylmorpholin-4-yl)-5-oxo-5,6,7,8-tetrahydro-9-oxa-1,3,6-triazabenzocyclohepten-4-yl]-2-fluorophenyl}-3-(5-methyl-[1,3,4]oxadiazol-2-yl)urea] | 557 nM | 106 nM | 94 nM | 824 nM |
| CCN1CC(C)(C)Oc2nc(N3CC4CCC(C3)O4)nc(-c3ccc(NC(=O)NCCOC)c(F)c3)c2C1=O [Example 131, 1-{4-[6-Ethyl-8,8-dimethyl-2-(8-oxa-3-azabicyclo[3.2.1]oct-3-yl)-5-oxo-5,6,7,8-tetrahydro-9-oxa-1,3,6-triazabenzocyclohepten-4-yl]-2-fluorophenyl}-3-(2-methoxyethyl)urea] | 5900 nM | 383 nM | 1990 nM | >10000 nM |
| CCN1CC(C)(C)Oc2nc(N3CCOC[C@@H]3C)nc(-c3ccc(NC(=O)Nc4ccc(C(=O)NCC(C)(C)O)cc4)cc3)c2C1=O [Example 219, 4-(3-{4-[6-Ethyl-8,8-dimethyl-2-((S)-3-methylmorpholin-4-yl)-5-oxo-5,6,7,8-tetrahydro-9-oxa-1,3,6-triazabenzocyclohepten-4-yl]phenyl}ureido)-N-(2-hydroxy-2-methylpropyl)benzamide] | 436 nM | 38 nM | 28 nM | 98 nM |
| COCCN1CC(C)(C)Oc2nc(N3CC4CCC(C3)O4)nc(-c3ccc(NC(=O)Nc4ccon4)cc3)c2C1=O [Example 172, 1-Isoxazol-3-yl-3-{4-[6-(2-methoxyethyl)-8,8-dimethyl-2-(8-oxa-3-azabicyclo[3.2.1]oct-3-yl)-5-oxo-5,6,7,8-tetrahydro-9-oxa-1,3,6-triazabenzocyclohepten-4-yl]phenyl}urea] | 198 nM | 20 nM | 98 nM | <10000 nM |
| CCN1CC(C)(C)Oc2nc(N3CC4CCC(C3)O4)nc(-c3ccc(NC(=O)Nc4ccncc4F)c(F)c3)c2C1=O [Example 76] | 367 nM | 28 nM | 29 nM | 2360 nM |
| COc1ccnc(NC(=O)Nc2ccc(-c3nc(N4CC5CCC(C4)O5)nc4c3C(=O)N(C)CC(C)(C)O4)cc2)c1 [Example 21, 1-(4-methoxypyridin-2-yl)-3-{4-[6,8,8-trimethyl-2-(8-oxa-3-azabicyclo[3.2.1]oct-3-yl)-5-oxo-5,6,7,8-tetrahydro-9-oxa-1,3,6-triazabenzocyclohepten-4-yl]phenyl}urea] | 549 nM | 15 nM | 51 nM | >10000 nM |
| CCN1CC(C)(C)Oc2nc(N3CC4CCC(C3)O4)nc(-c3ccc(NC(=O)Nc4cnc(OC)cn4)cc3)c2C1=O [Example 198, 1-{4-[6-Ethyl-8,8-dimethyl-2-(8-oxa-3-azabicyclo[3.2.1]oct-3-yl)-5-oxo-5,6,7,8-tetrahydro-9-oxa-1,3,6-triazabenzocyclohepten-4-yl]phenyl}-3-(5-methoxypyrazin-2-yl)urea] | 318 nM | 57 nM | 44 nM | >10000 nM |
| CCN1CC(C)(C)Oc2nc(N3CC4CCC(C3)O4)nc(-c3ccc(NC(=O)Nc4cc(C)on4)cc3)c2C1=O [Example 116, 1-{4-[6-Ethyl-8,8-dimethyl-2-(8-oxa-3-azabicyclo[3.2.1]oct-3-yl)-5-oxo-5,6,7,8-tetrahydro-9-oxa-1,3,6-triazabenzocyclohepten-4-yl]phenyl}-3-(5-methylisoxazol-3-yl)urea] | 282 nM | 42 nM | 98 nM | 4310 nM |
| CCOC(=O)Nc1ccc(-c2nc(N3CC4CCC(C3)O4)nc3c2C(=O)N(CC)CC(C)(C)O3)cc1 [Example 106, {4-[6-Ethyl-8,8-dimethyl-2-(8-oxa-3-azabicyclo[3.2.1]oct-3-yl)-5-oxo-5,6,7,8-tetrahydro-9-oxa-1,3,6-triazabenzocyclohepten-4-yl]phenyl}carbamic acid ethyl ester] | 6560 nM | 442 nM | 767 nM | >10000 nM |
| CCN1CC(C)(C)Oc2nc(N3CCOC[C@@H]3C)nc(-c3ccc(NC(=O)Nc4cc(OC)c(F)cc4F)cc3)c2C1=O [Example 208, 1-(2,4-Difluoro-5-methoxyphenyl)-3-{4-[6-ethyl-8,8-dimethyl-2-((S)-3-methylmorpholin-4-yl)-5-oxo-5,6,7,8-tetrahydro-9-oxa-1,3,6-triazabenzocyclohepten-4-yl]phenyl}urea] | 181 nM | 81 nM | 26 nM | 1240 nM |
| CCN1CC(C)(C)Oc2nc(N3CC4CCC(C3)O4)nc(-c3ccc(NC(=O)Nc4cnn(C)c4)cc3)c2C1=O [Example 126, 1-{4-[6-Ethyl-8,8-dimethyl-2-(8-oxa-3-azabicyclo[3.2.1]oct-3-yl)-5-oxo-5,6,7,8-tetrahydro-9-oxa-1,3,6-triazabenzocyclohepten-4-yl]phenyl}-3-(1-methyl-1H-pyrazol-4-yl)urea] | 225 nM | 13 nM | 68 nM | 2963 nM |
| CCN1CC(C)(C)Oc2nc(N3CCOC[C@@H]3C)nc(-c3ccc(NC(=O)Nc4cnc(N5CCOCC5)cn4)cc3)c2C1=O [Example 232, 1-{4-[6-Ethyl-8,8-dimethyl-2-((S)-3-methylmorpholin-4-yl)-5-oxo-5,6,7,8-tetrahydro-9-oxa-1,3,6-triazabenzocyclohepten-4-yl]phenyl}-3-(5-morpholin-4-ylpyrazin-2-yl)urea] | 95 nM | 32 nM | 26 nM | 5630 nM |
| CCN1CC(C)(C)Oc2nc(N3CC4CCC(C3)O4)nc(-c3ccc(NC(=O)OC)cc3)c2C1=O [Example 105, {4-[6-Ethyl-8,8-dimethyl-2-(8-oxa-3-azabicyclo[3.2.1]oct-3-yl)-5-oxo-5,6,7,8-tetrahydro-9-oxa-1,3,6-triazabenzocyclohepten-4-yl]phenyl}carbamic acid methyl ester] | 2690 nM | 180 nM | 360 nM | >10000 nM |
| CCN1CC(C)(C)Oc2nc(N3CCOC[C@@H]3C)nc(-c3ccc(NC(=O)OCCO)cc3)c2C1=O [Example 186, {4-[6-Ethyl-8,8-dimethyl-2-((S)-3-methylmorpholin-4-yl)-5-oxo-5,6,7,8-tetrahydro-9-oxa-1,3,6-triazabenzocyclohepten-4-yl]phenyl}carbamic acid 2-hydroxyethyl ester] | 266 nM | 25 nM | 60 nM | 3940 nM |
| COCCN1CC(C)(C)Oc2nc(N3CCOC[C@@H]3C)nc(-c3ccc(NC(=O)Nc4ccon4)cc3)c2C1=O [Example 180, 1-Isoxazol-3-yl-3-{4-[6-(2-methoxyethyl)-8,8-dimethyl-2-((S)-3-methylmorpholin-4-yl)-5-oxo-5,6,7,8-tetrahydro-9-oxa-1,3,6-triazabenzocyclohepten-4-yl]phenyl}urea] | 146 nM | 11 nM | 65 nM | 604 nM |
| CCN1CC(C)(C)Oc2nc(N3CC4CCC(C3)O4)nc(-c3ccc(NC(=O)Nc4cccc(OC(F)F)c4)cc3)c2C1=O [Example 18, 1-(3-difluoromethoxyphenyl)-3-{4-[6-ethyl-8,8-dimethyl-2-(8-oxa-3-azabicyclo[3.2.1]oct-3-yl)-5-oxo-5,6,7,8-tetrahydro-9-oxa-1,3,6-triazabenzocyclohepten-4-yl]phenyl}urea] | 63 nM | 25 nM | 29 nM | 7570 nM |
| CCN1CC(C)(C)Oc2nc(N3CC4CCC(C3)O4)nc(-c3ccc(NC(=O)Nc4ccc(C(=O)N(C)CCN(C)C)cc4)cc3)c2C1=O [Example 176, N-(2-Dimethylaminoethyl)-4-(3-{4-[6-ethyl-8,8-dimethyl-2-(8-oxa-3-azabicyclo[3.2.1]oct-3-yl)-5-oxo-5,6,7,8-tetrahydro-9-oxa-1,3,6-triazabenzocyclohepten-4-yl]phenyl}ureido)-N-methylbenzamide] | 83 nM | 69 nM | 314 nM | 100 nM |
